Assay results reported in patent US20220298138A1, “ENZYME INHIBITORS” (KALVISTA PHARMACEUTICALS LIMITED, priority 2019, published 2022).

Tests used:
Human FXIa = biological target: T1, Human FXIa (Homo sapiens, UniProt P03951); experiment: FXIa inhibitory activity in vitro (fluorogenic substrate Z-Gly-Pro-Arg-AFC), selectivity; type: biochemical; details: category scale, 25° C.
T1 construct: Human FXIa (Enzyme Research Laboratories) was incubated; purchased Enzyme Research Laboratories
Description: Determination of the % Inhibition for FXIa
Human FXIa (Enzyme Research Laboratories) was incubated at 25° C. with the fluorogenic substrate Z-Gly-Pro-Arg-AFC and various concentrations of the test compound. Residual enzyme activity (initial rate of reaction) was determined by measuring the change in fluorescence at 410 nm and the IC50 value for the test compound was determined.

Human Factor XIIa = biological target: T2, Human Factor XIIa (Homo sapiens, UniProt P00748); experiment: Factor XIIa inhibitory activity in vitro (fluorogenic substrate H-DPro-Phe-Arg-AFC); type: biochemical; details: 25° C., class symbols, read-out: Human FXIIa IC50
T2 construct: purchased Enzyme Research Laboratories
T2 sequence (P00748 373-615 limits assumed): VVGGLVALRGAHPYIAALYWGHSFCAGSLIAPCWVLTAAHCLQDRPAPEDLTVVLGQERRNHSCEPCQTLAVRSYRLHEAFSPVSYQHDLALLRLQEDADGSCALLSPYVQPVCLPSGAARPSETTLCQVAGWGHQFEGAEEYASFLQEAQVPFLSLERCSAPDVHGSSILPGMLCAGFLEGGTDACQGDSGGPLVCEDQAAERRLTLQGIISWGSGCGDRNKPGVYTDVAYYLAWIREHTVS
Outline: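 Enzyme incubated at 25° C with fluorogenic substrate H-DPro-Phe-Arg-AFC and a range of compound concentrations. Residual activity taken as initial reaction rate from […], giving IC50.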

T1 sequence (P03951 388-625 limits assumed): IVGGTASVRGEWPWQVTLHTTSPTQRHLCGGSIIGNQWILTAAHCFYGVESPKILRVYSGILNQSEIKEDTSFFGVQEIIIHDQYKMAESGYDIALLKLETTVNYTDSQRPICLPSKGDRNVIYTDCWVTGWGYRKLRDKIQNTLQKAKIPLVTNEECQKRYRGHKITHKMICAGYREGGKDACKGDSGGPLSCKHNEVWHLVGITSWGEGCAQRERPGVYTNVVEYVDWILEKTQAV
T1 sequence (P03951 19-387 partner limits assumed): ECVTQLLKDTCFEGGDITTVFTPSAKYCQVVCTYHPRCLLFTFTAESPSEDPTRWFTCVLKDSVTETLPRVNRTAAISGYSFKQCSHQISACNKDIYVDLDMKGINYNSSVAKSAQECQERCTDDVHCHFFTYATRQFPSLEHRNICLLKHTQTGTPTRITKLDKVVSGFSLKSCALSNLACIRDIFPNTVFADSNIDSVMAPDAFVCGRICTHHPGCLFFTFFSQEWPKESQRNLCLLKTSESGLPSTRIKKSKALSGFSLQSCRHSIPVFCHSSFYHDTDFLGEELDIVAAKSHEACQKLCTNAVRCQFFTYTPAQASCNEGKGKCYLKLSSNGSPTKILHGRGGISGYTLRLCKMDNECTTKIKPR

Compound | IC50 (Human FXIa) | IC50 (Human Factor XIIa)
C[C@H](NC(=O)[C@H](N)CCc1ccccc1)C(=O)NCc1ccc2c(N)nccc2c1 [Example 6.09] | 10 to 40 µM | 0.1 to 0.279 µM
CN[C@H](CCc1ccccc1)C(=O)N[C@@H](C)C(=O)NCc1ccc2c(N)nccc2c1 [Example 6.10] | 10 to 40 µM | 0.1 to 0.279 µM
CC(C)N[C@H](CCc1ccccc1)C(=O)N[C@@H](C)C(=O)NCc1ccc2c(N)nccc2c1 [Example 6.11] | 3 to 10 µM | 0.28 to 1 µM
C[C@H](NC(=O)[C@@H](N)CCc1ccccn1)C(=O)NCc1ccc2c(N)nccc2c1 [Example 6.12] | > 40 µM | 10 to 40 µM
C[C@H](NC(=O)[C@H](N)CCc1ccccn1)C(=O)NCc1ccc2c(N)nccc2c1 [Example 6.13] | > 40 µM | 0.28 to 1 µM
C[C@H](NC(=O)[C@H](N)CCCCN1CCCCC1)C(=O)NCc1ccc2c(N)nccc2c1 [Example 6.14] | 10 to 40 µM | 1 to 3 µM
C[C@H](NC(=O)[C@H](N)CCc1ccncc1)C(=O)NCc1ccc2c(N)nccc2c1 [Example 6.15] | > 40 µM | 3 to 10 µM
C[C@H](NC(=O)[C@H](N)COCc1ccccc1)C(=O)NCc1ccc2c(N)nccc2c1 [Example 6.16] | 10 to 40 µM | 10 to 40 µM
C[C@H](NC(=O)[C@H](N)COc1ccccc1)C(=O)NCc1ccc2c(N)nccc2c1 [Example 6.17] | 10 to 40 µM | 10 to 40 µM
C[C@H](NC(=O)[C@H](N)CCCc1ccccc1)C(=O)NCc1ccc2c(N)nccc2c1 [Example 6.18] | 3 to 10 µM | 3 to 10 µM
C[C@H](NC(=O)[C@@H](CCc1ccccc1)NC1CCCCC1)C(=O)NCc1ccc2c(N)nccc2c1 [Example 6.19] | 0.3 to 1 µM | 0.03 to 0.1 µM
C[C@H](NC(=O)[C@@H](CCc1ccccc1)NS(C)(=O)=O)C(=O)NCc1ccc2c(N)nccc2c1 [Example 6.20] | 0.3 to 1 µM | 0.28 to 1 µM
CC(NC(=O)[C@H](N)CCc1ccccc1)C(=O)NCc1ccc2ccnc(N)c2c1 (stereo partly shown) [Example 6.21] | > 40 µM | 10 to 40 µM
COc1cc2c(N)nccc2cc1CNC(=O)[C@H](C)NC(=O)[C@H](N)CCc1ccccc1 [Example 6.22] | 3 to 10 µM | 10 to 40 µM
C[C@H](NC(=O)[C@@H](CCc1ccccc1)N1CCCC1)C(=O)NCc1ccc2c(N)nccc2c1 [Example 6.23] | > 40 µM | 0.1 to 0.279 µM
C[C@H](NC(=O)[C@H](O)CCc1ccccc1)C(=O)NCc1ccc2c(N)nccc2c1 [Example 6.24] | 10 to 40 µM | 10 to 40 µM
C[C@H](NC(=O)[C@@H](CCc1ccccc1)NC(=O)OC(C)(C)C)C(=O)NCc1ccc2c(N)nccc2c1 [Example 6.25] | 10 to 40 µM | 3 to 10 µM
C[C@H](NC(=O)[C@H](N)CCc1ccccc1)C(=O)NCc1cnc2[nH]cc(Cl)c2c1 [Example 9.01] | 10 to 40 µM | 0.28 to 1 µM
C[C@H](NC(=O)[C@H](N)CCc1ccccc1)C(=O)N[C@@H]1CCc2c1ccnc2N [Example 9.02] | > 40 µM | 0.28 to 1 µM
CC(C)N[C@H](CCc1ccccc1)C(=O)N[C@@H](C)C(=O)NCc1cnc2[nH]cc(Cl)c2c1 [Example 9.03] | > 40 µM | 1 to 3 µM
C[C@H](NC(=O)[C@H](N)CCc1ccccc1)C(=O)NCc1ccc2[nH]cc(Cl)c2c1 [Example 9.04] | > 40 µM | 3 to 10 µM

Compound | IC50 (Human FXIa) | IC50 (Human Factor XIIa)
COc1ccc(-n2ccc(C(F)(F)F)n2)c(CNC(=O)[C@H](C)NC(=O)[C@@H](N)CCc2ccccc2)c1F [Example 9.05] | 1 to 3 µM | 10 to 40 µM
Cc1c(CNC(=O)[C@H](C)NC(=O)[C@H](N)CCc2ccccc2)ccc2c(N)nccc12 [Example 9.06] | 10 to 40 µM | 0.1 to 0.279 µM
C[C@H](NC(=O)[C@H](N)CCc1ccccc1)C(=O)NCc1cc2c(N)nccc2s1 [Example 9.07, (2R)—N-[(1S)-1-[({4-Aminothieno[3,2-c]pyridin-2-yl}methyl)carbamoyl]ethyl]-2-amino-4-phenylbutanamide] | > 40 µM | 0.1 to 0.279 µM
CC(C)N[C@H](CCc1ccccc1)C(=O)N[C@@H](C)C(=O)NCc1ccc2[nH]cc(Cl)c2c1 [Example 9.08] | 10 to 40 µM | 1 to 3 µM
CC(C)N[C@H](CCc1ccccc1)C(=O)N[C@@H](C)C(=O)NCc1cc2c(N)nccc2o1 [Example 9.24] | > 40 µM | 0.1 to 0.279 µM
CC(C)N[C@H](CCc1ccccc1)C(=O)N[C@@H](C)C(=O)NCc1cc2c(N)nccc2s1 [Example 9.27, (2R)—N-[(1S)-1-[({4-Aminothieno[3,2-c]pyridin-2-yl}methyl)carbamoyl]ethyl]-2-(isopropylamino)-4-phenylbutanamide] | > 40 µM | 0.03 to 0.1 µM
CC(C)N[C@H](CCCCN1CCCCC1)C(=O)N1CC[C@H]1C(=O)NCc1ccc2[nH]cc(Cl)c2c1 [Example 10.01, (2S)—N-[(3-Chloro-1H-indol-5-yl)methyl]-1-[(2R)-2-(isopropylamino)-6-(piperidin-1-yl)hexanoyl]azetidine-2-carboxamide] | 10 to 40 µM | 0.03 to 0.1 µM
N[C@H](CCc1ccccc1)C(=O)N1CCC1C(=O)NCc1cnc2[nH]cc(Cl)c2c1 (stereo partly shown) [Example 10.02] | > 40 µM | 0.28 to 1 µM
N[C@H](CCCCN1CCOCC1)C(=O)N1CC[C@H]1C(=O)NCc1cnc2[nH]cc(Cl)c2c1 [Example 10.03] | > 40 µM | 0.28 to 1 µM
N[C@H](CCCCN1CCC(F)(F)C1)C(=O)N1CC[C@H]1C(=O)NCc1cnc2[nH]cc(Cl)c2c1 [Example 10.04] | > 40 µM | 0.28 to 1 µM
CC(C)N[C@H](CCCCN1CCOCC1)C(=O)N1CC[C@H]1C(=O)NCc1cnc2[nH]cc(Cl)c2c1 [Example 10.05] | > 40 µM | 0.28 to 1 µM
N[C@H](CCCCO)C(=O)N1CC[C@H]1C(=O)NCc1ccc2[nH]cc(Cl)c2c1 [Example 10.06] | > 40 µM | 10 to 40 µM
CC(C)N[C@H](CCCCN1CCCCC1)C(=O)N1C[C@@H](c2ccc(F)c(F)c2)[C@H]1C(=O)NCc1ccc2[nH]cc(Cl)c2c1 [Example 10.07] | > 40 µM | 0.28 to 1 µM
N[C@H](CCCCN1CCN(c2ncccn2)CC1)C(=O)N1CC[C@H]1C(=O)NCc1ccc2[nH]cc(Cl)c2c1 [Example 10.08] | > 40 µM | 3 to 10 µM
N[C@H](CCCCN1CCc2ccccc2C1)C(=O)N1CC[C@H]1C(=O)NCc1ccc2[nH]cc(Cl)c2c1 [Example 10.09] | > 40 µM | 1 to 3 µM
N[C@H](CCCCN1Cc2ccccc2C1)C(=O)N1CC[C@H]1C(=O)NCc1ccc2[nH]cc(Cl)c2c1 [Example 10.10] | > 40 µM | 1 to 3 µM
CC(C)N[C@H](CCCCN1Cc2ccccc2C1)C(=O)N1CC[C@H]1C(=O)NCc1ccc2[nH]cc(Cl)c2c1 [Example 10.11] | 10 to 40 µM | 0.28 to 1 µM
N[C@H](CCCCN1CCC(F)(F)CC1)C(=O)N1CC[C@H]1C(=O)NCc1ccc2[nH]cc(Cl)c2c1 [Example 10.12] | > 40 µM | 1 to 3 µM
N[C@H](CCCCn1ccnc1)C(=O)N1CC[C@H]1C(=O)NCc1ccc2[nH]cc(Cl)c2c1 [Example 10.13] | > 40 µM | 3 to 10 µM
N[C@H](CCCCN1CCc2ccccc21)C(=O)N1CC[C@H]1C(=O)NCc1ccc2[nH]cc(Cl)c2c1 [Example 10.14] | > 40 µM | 10 to 40 µM
